{"source": "patent US8748415B2", "about": "(priority 2011, dated 2014)", "data": [{"system": "recombinant NL4-3 virus (Renilla luciferase in nef, Gag P373S)", "assay": "HIV cell culture assay (luciferase activity in MT-2 cells infected with NLRluc recombinant virus)", "type": "cell-based", "conditions": "NL43, MT-2 cells infected 4-5 days with NLRluc recombinant virus, class symbol", "outline": "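Activity was read as luciferase output (Dual Luciferase reagents premixed with lysis solution) after 4–5 days of infection in serially diluted inhibitor. Host cells were MT-2 in 10% FBS RPMI. The reporter virus came from transfected 293T cells and was titered on MT-2.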", "units": {"EC50": "nM"}, "values": [{"smiles": "C=C(C)[C@@H]1CC[C@]2(CNCCCN3C(=O)CCCC3=O)CC[C@]3(C)[C@H](CC[C@@H]4[C@@]5(C)CC=C(c6ccc(C(=O)O)cc6)C(C)(C)[C@@H]5CC[C@]43C)[C@@H]12", "note": "[Example 80, 4-((1R,3aS,5aR,5bR,7aR,11aS,11bR,13aR,13bR)-3a-((3-(2,6-dioxopiperidin-1-yl)propylamino)methyl)-5a,5b,8,8,11a-pentamethyl-1-(prop-1-en-2-yl)-2,3,3a,4,5,5a,5b,6,7,7a,8,11,11a,11b,12,13,13a,13b-octadecahydro-1H-cyclopenta[a]chrysen-9-yl)benzoic acid]", "EC50": "< 100"}, {"smiles": "C=C(C)[C@@H]1CC[C@]2(CNCC(O)CN3CCCC3=O)CC[C@]3(C)[C@H](CC[C@@H]4[C@@]5(C)CC=C(c6ccc(C(=O)O)cc6)C(C)(C)[C@@H]5CC[C@]43C)[C@@H]12", "note": "(stereo partly drawn) [Example 81, 4-((1R,3aS,5aR,5bR,7aR,11aS,11bR,13aR,13bR)-3a-((2-hydroxy-3-(2-oxopyrrolidin-1-yl)propylamino)methyl)-5a,5b,8,8,11a-pentamethyl-1-(prop-1-en-2-yl)-2,3,3a,4,5,5a,5b,6,7,7a,8,11,11a,11b,12,13,13a,13b-octadecahydro-1H-cyclopenta[a]chrysen-9-yl)benzoic acid]", "EC50": "< 100"}, {"smiles": "C=C(C)[C@@H]1CC[C@]2(CNC3(CN4CCCCC4)CC3)CC[C@]3(C)[C@H](CC[C@@H]4[C@@]5(C)CC=C(c6ccc(C(=O)O)cc6)C(C)(C)[C@@H]5CC[C@]43C)[C@@H]12", "note": "[Example 82, 4-((1R,3aS,5aR,5bR,7aR,11aS,11bR,13aR,13bR)-5a,5b,8,8,11a-pentamethyl-3a-((1-(piperidin-1-ylmethyl)cyclopropylamino)methyl)-1-(prop-1-en-2-yl)-2,3,3a,4,5,5a,5b,6,7,7a,8,11,11a,11b,12,13,13a,13b-octadecahydro-1H-cyclopenta[a]chrysen-9-yl)benzoic acid]", "EC50": "< 100"}, {"smiles": "C=C(C)[C@@H]1CC[C@]2(CN(C)C)CC[C@]3(C)[C@H](CC[C@@H]4[C@@]5(C)CC=C(c6ccc(C(=O)O)cc6)C(C)(C)[C@@H]5CC[C@]43C)[C@@H]12", "note": "[Example 83, 4-((1R,3aS,5aR,5bR,7aR,11aS,11bR,13aR,13bR)-3a-((dimethylamino)methyl)-5a,5b,8,8,11a-pentamethyl-1-(prop-1-en-2-yl)-2,3,3a,4,5,5a,5b,6,7,7a,8,11,11a,11b,12,13,13a,13b-octadecahydro-1H-cyclopenta[a]chrysen-9-yl)benzoic acid]", "EC50": "< 100"}, {"smiles": "C=C(C)[C@@H]1CC[C@]2(CN(CCCN3CCS(=O)(=O)CC3)C3CC3)CC[C@]3(C)[C@H](CC[C@@H]4[C@@]5(C)CC=C(c6ccc(C(=O)O)cc6)C(C)(C)[C@@H]5CC[C@]43C)[C@@H]12", "note": "[Example 84, 4-((1R,3aS,5aR,5bR,7aR,11aS,11bR,13aR,13bR)-3a-((cyclopropyl(3-(1,1-dioxido-4-thiomorpholinyl)propyl)amino)methyl)-1-isopropenyl-5a,5b,8,8,11a-pentamethyl-2,3,3a,4,5,5a,5b,6,7,7a,8,11,11a,11b,12,13,13a,13b-octadecahydro-1H-cyclopenta[a]chrysen-9-yl)benzoic acid]", "EC50": "< 100"}, {"smiles": "C=C(C)[C@@H]1CC[C@]2(CNCCN(C)CCS(C)(=O)=O)CC[C@]3(C)[C@H](CC[C@@H]4[C@@]5(C)CC=C(c6ccc(C(=O)O)cc6)C(C)(C)[C@@H]5CC[C@]43C)[C@@H]12", "note": "[Example 85, 4-((1R,3aS,5aR,5bR,7aR,11aS,11bR,13aR,13bR)-5a,5b,8,8,11a-pentamethyl-3a-((2-(methyl(2-(methylsulfonyl)ethyl)amino)ethylamino)methyl)-1-(prop-1-en-2-yl)-2,3,3a,4,5,5a,5b,6,7,7a,8,11,11a,11b,12,13,13a,13b-octadecahydro-1H-cyclopenta[a]chrysen-9-yl)benzoic acid]", "EC50": "< 100"}, {"smiles": "C=C(C)[C@@H]1CC[C@]2(CNCCN3CCSCC3)CC[C@]3(C)[C@H](CC[C@@H]4[C@@]5(C)CC=C(c6ccc(C(=O)O)cc6)C(C)(C)[C@@H]5CC[C@]43C)[C@@H]12", "note": "[Example 86]", "EC50": "< 100"}, {"smiles": "C=C(C)[C@@H]1CC[C@]2(CNCCCN3CCCC3=O)CC[C@]3(C)[C@H](CC[C@@H]4[C@@]5(C)CC=C(c6ccc(C(=O)O)cc6F)C(C)(C)[C@@H]5CC[C@]43C)[C@@H]12", "note": "[Example 87, 3-fluoro-4-((1R,3aS,5aR,5bR,7aR,11aS,11bR,13aR,13bR)-5a,5b,8,8,11a-pentamethyl-3a-((3-(2-oxopyrrolidin-1-yl)propylamino)methyl)-1-(prop-1-en-2-yl)-2,3,3a,4,5,5a,5b,6,7,7a,8,11,11a,11b,12,13,13a,13b-octadecahydro-1H-cyclopenta[a]chrysen-9-yl)benzoic acid]", "EC50": "< 100"}, {"smiles": "C=C(C)[C@@H]1CC[C@]2(CNCCCN3CCCC3=O)CC[C@]3(C)[C@H](CC[C@@H]4[C@@]5(C)CC=C(c6ccc(C(=O)O)c(F)c6)C(C)(C)[C@@H]5CC[C@]43C)[C@@H]12", "note": "[Example 88, 2-fluoro-4-((1R,3aS,5aR,5bR,7aR,11aS,11bR,13aR,13bR)-5a,5b,8,8,11a-pentamethyl-3a-((3-(2-oxopyrrolidin-1-yl)propylamino)methyl)-1-(prop-1-en-2-yl)-2,3,3a,4,5,5a,5b,6,7,7a,8,11,11a,11b,12,13,13a,13b-octadecahydro-1H-cyclopenta[a]chrysen-9-yl)benzoic acid]", "EC50": "< 100"}, {"smiles": "C=C(C)[C@@H]1CC[C@]2(CNCCC(=O)N3CCCC3)CC[C@]3(C)[C@H](CC[C@@H]4[C@@]5(C)CC=C(c6ccc(C(=O)O)cc6F)C(C)(C)[C@@H]5CC[C@]43C)[C@@H]12", "note": "[Example 89, 3-fluoro-4-((1R,3aS,5aR,5bR,7aR,11aS,11bR,13aR,13bR)-5a,5b,8,8,11a-pentamethyl-3a-((3-oxo-3-(pyrrolidin-1-yl)propylamino)methyl)-1-(prop-1-en-2-yl)-2,3,3a,4,5,5a,5b,6,7,7a,8,11,11a,11b,12,13,13a,13b-octadecahydro-1H-cyclopenta[a]chrysen-9-yl)benzoic acid]", "EC50": "< 100"}, {"smiles": "C=C(C)[C@@H]1CC[C@]2(CNCCC(=O)N3CCCC3)CC[C@]3(C)[C@H](CC[C@@H]4[C@@]5(C)CC=C(c6ccc(C(=O)O)c(F)c6)C(C)(C)[C@@H]5CC[C@]43C)[C@@H]12", "note": "[Example 90, 2-fluoro-4-((1R,3aS,5aR,5bR,7aR,11aS,11bR,13aR,13bR)-5a,5b,8,8,11a-pentamethyl-3a-((3-oxo-3-(pyrrolidin-1-yl)propylamino)methyl)-1-(prop-1-en-2-yl)-2,3,3a,4,5,5a,5b,6,7,7a,8,11,11a,11b,12,13,13a,13b-octadecahydro-1H-cyclopenta[a]chrysen-9-yl)benzoic acid]", "EC50": "< 100"}, {"smiles": "C=C(C)[C@@H]1CC[C@]2(CNCCN3CCCC3=O)CC[C@]3(C)[C@H](CC[C@@H]4[C@@]5(C)CC=C(c6ccc(C(=O)O)c(F)c6)C(C)(C)[C@@H]5CC[C@]43C)[C@@H]12", "note": "[Example 91, 2-fluoro-4-((1R,3aS,5aR,5bR,7aR,11aS,11bR,13aR,13bR)-5a,5b,8,8,11a-pentamethyl-3a-((2-(2-oxopyrrolidin-1-yl)ethylamino)methyl)-1-(prop-1-en-2-yl)-2,3,3a,4,5,5a,5b,6,7,7a,8,11,11a,11b,12,13,13a,13b-octadecahydro-1H-cyclopenta[a]chrysen-9-yl)benzoic acid]", "EC50": "< 100"}, {"smiles": "C=C(C)[C@@H]1CC[C@]2(CNCCCN3CCS(=O)(=O)CC3)CC[C@]3(C)[C@H](CC[C@@H]4[C@@]5(C)CC=C(c6ccc(C(=O)O)cc6F)C(C)(C)[C@@H]5CC[C@]43C)[C@@H]12", "note": "[Example 92, 4-((1R,3aS,5aR,5bR,7aR,11aS,11bR,13aR,13bR)-3a-(((3-(1,1-dioxido-4-thiomorpholinyl)propyl)amino)methyl)-1-isopropenyl-5a,5b,8,8,11a-pentamethyl-2,3,3a,4,5,5a,5b,6,7,7a,8,11,11a,11b,12,13,13a,13b-octadecahydro-1H-cyclopenta[a]chrysen-9-yl)-3-fluorobenzoic acid]", "EC50": "< 100"}, {"smiles": "C=C(C)[C@@H]1CC[C@]2(CNCCCN3CCS(=O)(=O)CC3)CC[C@]3(C)[C@H](CC[C@@H]4[C@@]5(C)CC=C(c6ccc(C(=O)O)c(F)c6)C(C)(C)[C@@H]5CC[C@]43C)[C@@H]12", "note": "[Example 93, 4-((1R,3aS,5aR,5bR,7aR,11aS,11bR,13aR,13bR)-3a-(((3-(1,1-dioxido-4-thiomorpholinyl)propyl)amino)methyl)-1-isopropenyl-5a,5b,8,8,11a-pentamethyl-2,3,3a,4,5,5a,5b,6,7,7a,8,11,11a,11b,12,13,13a,13b-octadecahydro-1H-cyclopenta[a]chrysen-9-yl)-2-fluorobenzoic acid]", "EC50": "< 100"}, {"smiles": "C=C(C)[C@@H]1CC[C@]2(CNCCN3CCS(=O)(=O)CC3)CC[C@]3(C)[C@H](CC[C@@H]4[C@@]5(C)CC=C(c6ccc(C(=O)O)cc6F)C(C)(C)[C@@H]5CC[C@]43C)[C@@H]12", "note": "[Example 94, 4-((1R,3aS,5aR,5bR,7aR,11aS,11bR,13aR,13bR)-3a-(((2-(1,1-dioxido-4-thiomorpholinyl)ethyl)amino)methyl)-1-isopropenyl-5a,5b,8,8,11a-pentamethyl-2,3,3a,4,5,5a,5b,6,7,7a,8,11,11a,11b,12,13,13a,13b-octadecahydro-1H-cyclopenta[a]chrysen-9-yl)-3-fluorobenzoic acid]", "EC50": "< 100"}, {"smiles": "C=C(C)[C@@H]1CC[C@]2(CNCCN3CCS(=O)(=O)CC3)CC[C@]3(C)[C@H](CC[C@@H]4[C@@]5(C)CC=C(c6ccc(C(=O)O)c(F)c6)C(C)(C)[C@@H]5CC[C@]43C)[C@@H]12", "note": "[Example 95, 4-((1R,3aS,5aR,5bR,7aR,11aS,11bR,13aR,13bR)-3a-(((2-(1,1-dioxido-4-thiomorpholinyl)ethyl)amino)methyl)-1-isopropenyl-5a,5b,8,8,11a-pentamethyl-2,3,3a,4,5,5a,5b,6,7,7a,8,11,11a,11b,12,13,13a,13b-octadecahydro-1H-cyclopenta[a]chrysen-9-yl)-2-fluorobenzoic acid]", "EC50": "< 100"}]}]}
